pIC50: −log10 of the molar value. Like-named read-outs stand apart in the source and are kept apart here.
System: pERK in NCI-H358 cells
Test: Cell-based pERK HTRF assay (pERK inhibition in H358 cells)
Settings: Homo sapiens, NCI-H358, 0.5 h, read-out: PERK in H358 cell
Description: On Day 1, cells (NCI-H358) were seeded into 96-well plates at 4×10^4 cells/well in complete growth media (RPMI, 10% FBS).
The source plate was created with compounds diluted in media at 5-fold the final assay concentration. […] 20 μL was transferred onto the cell plates (final volume in wells was 100 μL). Plates were harvested after 30 min incubation by aspirating media and adding kit-supplied 1× supplemented lysis buffer to all wells (75 μl per well). Plates were then placed on a plate shaker and incubated at 850 rpm for an additional 30 min.
Antibody mixture solution was prepared by diluting aliquoted d2 and Eu Cryptate antibodies 1:20 in kit supplied detection buffer, then mixed the diluted antibodies solutions (1:1 v:v).
Samples were homogenized by pipetting up and down and then transferred (16 μL of cell lysates) from the 96-well cell culture plate to two wells of the HTRF 384-well detection plate containing the antibody solution. Plates were centrifuged (524 g for 1 min) and allowed to incubate between 4 and 24 h at room temperature. Maximum signal is reached after 4 h incubation time and remains stable over a period of 24 hours. Therefore, readings can be made between 4 and 24 h of incubation.

[1] = pERK inhibition IC50, NCI-H358 cells, 30 min incubation

Molecule `CN1CCC[C@H]1COc1nc(NC2CN(C#N)C2)c2cc(Cl)c(-c3ccc(F)c4sc(N)nc34)c(F)c2n1` [Compound 40, 3-((7-(2-amino-7-fluorobenzo[d]thiazol-4-yl)-6-chloro-8-fluoro-2-(((S)-1-methylpyrrolidin-2-yl)methoxy)quinazolin-4-yl)amino)azetidine-1-carbonitrile] has a pIC50 of 6.00 to 7.00.

`C=CC(=O)N1CC(Nc2nc(OC[C@@H]3CCCN3C)nc3c(F)c(-c4ccc(F)c5sc(N)nc45)ncc23)C1` [Compound 43] showed a pIC50 [1] of less than 6.00.

Molecule `C=CC(=O)N1CCN(c2nc(OC[C@@H]3CCCN3C)nc3c(F)c(-c4ccc(F)c5sc(N)nc45)c(Cl)cc23)CC1` [Compound 44] has a pIC50 [1] greater than 7.00.

In the case of `N#CN1CC(Nc2ncnc3c(F)c(-c4ccc(F)c5sc(N)nc45)c(C(F)(F)F)cc23)C1` [Compound 45], the pIC50 [1] was greater than 7.00.

With `C=CC(=O)N1CC(Nc2nc(OCC34CCCN3CCC4)nc3c(F)c(-c4ccc(F)c5sc(N)nc45)c(Cl)cc23)C1` [Compound 49, 1-(3-((7-(2-amino-7-fluorobenzo[d]thiazol-4-yl)-6-chloro-8-fluoro-2-((tetrahydro-1H-pyrrolizin-7a(5H)-yl)methoxy)quinazolin-4-yl)amino)azetidin-1-yl)prop-2-en-1-one] the pIC50 [1] was less than 6.00.

`CN1CCC[C@H]1COc1nc(NC2CCN(C#N)C2)c2cc(Cl)c(-c3ccc(F)c4sc(N)nc34)c(F)c2n1` (stereo partly shown) [Compound 51] was tested, and the pIC50 [1] was 6.00 to 7.00.

For `C=CC(=O)N1CCC(Nc2nc(OC[C@@H]3CCCN3C)nc3c(F)c(-c4ccc(F)c5sc(N)nc45)c(Cl)cc23)C1` (stereo partly shown) [Compound 52], the pIC50 [1] was less than 6.00.

`CN1CCC[C@H]1COc1nc(NC2CCCN(C#N)C2)c2cc(Cl)c(-c3ccc(F)c4sc(N)nc34)c(F)c2n1` (stereo partly shown) [Compound 53] showed a pIC50 [1] of less than 6.00.

`C=CC(=O)N1CCCC(Nc2nc(OC[C@@H]3CCCN3C)nc3c(F)c(-c4ccc(F)c5sc(N)nc45)c(Cl)cc23)C1` (stereo partly shown) [Compound 54] was tested, and the pIC50 [1] was 6.00 to 7.00.

`CN1CCC[C@H]1COc1nc(NC2CCN(C#N)CC2)c2cc(Cl)c(-c3ccc(F)c4sc(N)nc34)c(F)c2n1` [Compound 55] was tested, and the pIC50 [1] was less than 6.00.

For `N#CN1CC(Nc2nc(OCC34CCCN3CCC4)nc3c(F)c(-c4ccc(F)c5sc(N)nc45)c(Cl)cc23)C1` [Compound 58], the pIC50 [1] was 6.00 to 7.00.

`C=CC(=O)N1CC(Nc2nc(C3CCN(C)CC3)nc3c(F)c(-c4ccc(F)c5sc(N)nc45)c(Cl)cc23)C1` [Compound 60] was tested, and the pIC50 [1] was less than 6.00.

Molecule `C=CC(=O)N1CC(Nc2nc(OC[C@@H]3C[C@@H](F)CN3C)nc3c(F)c(-c4ccc(F)c5sc(N)nc45)c(Cl)cc23)C1` [Compound 63] has a pIC50 [1] of 6.00 to 7.00.

`C=CC(=O)NCCNc1nc(C2CCN(C)CC2)nc2c(F)c(-c3ccc(F)c4sc(N)nc34)c(Cl)cc12` [Compound 64] showed a pIC50 [1] of less than 6.00.

For `C=CC(=O)N1CC[C@@H]2[C@H]1CN2c1nc(OCC23CCCN2CCC3)nc2c(F)c(-c3ccc(F)c4sc(N)nc34)c(Cl)cc12` [Compound 65], the pIC50 [1] was 6.00 to 7.00.

Work on `C=CC(=O)N1CC[C@@H]2[C@H]1CN2c1nc(OC[C@@H]2CCCN2C)nc2c(F)c(-c3ccc(F)c4sc(N)nc34)c(Cl)cc12` [Compound 66] yielded a pIC50 [1] greater than 7.00.

`C=CC(=O)N1CCN(c2nc(OCC34CCCN3CCC4)nc3c(F)c(-c4ccc(F)c5sc(N)nc45)c(Cl)cc23)CC1` [Compound 67] showed a pIC50 [1] greater than 7.00.

`C=CC(=O)N1CC(Nc2ncnc3c(F)c(-c4ccc(F)c5sc(N)nc45)cc(OC)c23)C1` [Compound 69, 1-(3-((7-(2-amino-7-fluorobenzo[d]thiazol-4-yl)-8-fluoro-5-methoxyquinazolin-4-yl)amino)azetidin-1-yl)prop-2-en-1-one] showed a pIC50 [1] of less than 6.00.

Molecule `C=CC(=O)N1CC(Nc2nc(OCC34CCCN3CCC4)nc3c(F)c(-c4ccc(F)c5sc(N)nc45)c(-c4ccoc4)cc23)C1` [Compound 70, 1-(3-((7-(2-amino-7-fluorobenzo[d]thiazol-4-yl)-8-fluoro-6-(furan-3-yl)-2-((tetrahydro-1H-pyrrolizin-7a(5H)-yl)methoxy)quinazolin-4-yl)amino)azetidin-1-yl)prop-2-en-1-one] has a pIC50 [1] of less than 6.00.

`C=CC(=O)N1CCN(c2nc(OC[C@@H]3CCCN3C)nc3c(F)c(-c4ccc(F)c5sc(N)nc45)c(C(F)(F)F)cc23)CC1` [Compound 71, 1-(4-(7-(2-amino-7-fluorobenzo[d]thiazol-4-yl)-8-fluoro-2-(((S)-1-methylpyrrolidin-2-yl)methoxy)-6-(trifluoromethyl)quinazolin-4-yl)piperazin-1-yl)prop-2-en-1-one] showed a pIC50 [1] greater than 7.00.

`C=CC(=O)N1CCN(c2ncnc3c(F)c(-c4ccc(F)c5sc(N)nc45)c(CC#N)cc23)CC1` [Compound 72] was tested, and the pIC50 [1] was less than 6.00.

In the case of `C=CC(=O)N1CC(Nc2nc(OCC34CCCN3CCC4)nc3c(F)c(-c4ccc(F)c5sc(N)nc45)c(C(F)(F)F)cc23)C1` [Compound 79], the pIC50 [1] was less than 6.00.

For `C=CC(=O)N1CCN(c2nc(OCC34CCCN3CCC4)nc3c(F)c(-c4ccc(F)c5sc(N)nc45)c(C(F)(F)F)cc23)CC1` [Compound 80, 1-(4-(7-(2-amino-7-fluorobenzo[d]thiazol-4-yl)-8-fluoro-2-((tetrahydro-1H-pyrrolizin-7a(5H)-yl)methoxy)-6-(trifluoromethyl)quinazolin-4-yl)piperazin-1-yl)prop-2-en-1-one], the pIC50 [1] was greater than 7.00.

With `C#CC(=O)N1CC(Nc2nc(OC[C@@H]3CCCN3C)nc3c(F)c(-c4ccc(F)c5sc(N)nc45)c(Cl)cc23)C1` [Compound 81] the pIC50 [1] was 6.00 to 7.00.

In the case of `C=CC(=O)N1CCN(c2ncnc3c(F)c(-c4ccc(F)c5sc(N)nc45)c(Cl)c(OC)c23)CC1` [Compound 82], the pIC50 [1] was greater than 7.00.

`C=CC(=O)N1CC(N(C)c2nc(OCC34CCCN3CCC4)nc3c(F)c(-c4ccc(F)c5sc(N)nc45)c(Cl)cc23)C1` [Compound 84, 1-(3-((7-(2-amino-7-fluorobenzo[d]thiazol-4-yl)-6-chloro-8-fluoro-2-((tetrahydro-1H-pyrrolizin-7a(5H)-yl)methoxy)quinazolin-4-yl)(methyl)amino)azetidin-1-yl)prop-2-en-1-one] was tested, and the pIC50 [1] was 6.00 to 7.00.

Molecule `C=CC(=O)N1CC(Nc2nc(OC[C@@H]3CCCN3C)nc3c(F)c(-c4cccc5oc(N)nc45)c(Cl)cc23)C1` [Compound 88] has a pIC50 [1] of less than 6.00.

`C=CC(=O)N1CC[C@@H]2[C@H]1CN2c1nc(OC[C@@H]2C[C@@H](F)CN2C)nc2c(F)c(-c3ccc(F)c4sc(N)nc34)c(Cl)cc12` [Compound 89] gave a pIC50 [1] greater than 7.00.

Work on `C=CC(=O)N1CC(Nc2nc(OC[C@@H]3CCCN3C)nc3c(F)c(-c4ccc(F)c5nc(N)sc45)c(Cl)cc23)C1` [Compound 90] yielded a pIC50 [1] of less than 6.00.

`C=CC(=O)N1CC(Nc2nc(OCC34CCCN3CCC4)nc3c(F)c(-c4ccc(F)c5sc(N)nc45)c(CC#N)cc23)C1` [Compound 91, 2-(4-((1-acryloylazetidin-3-yl)amino)-7-(2-amino-7-fluorobenzo[d]thiazol-4-yl)-8-fluoro-2-((tetrahydro-1H-pyrrolizin-7a(5H)-yl)methoxy)quinazolin-6-yl)acetonitrile] gave a pIC50 [1] of less than 6.00.

`CC#CC(=O)N1CC(Nc2nc(OC[C@@H]3CCCN3C)nc3c(F)c(-c4ccc(F)c5sc(N)nc45)c(Cl)cc23)C1` [Compound 92, 1-[3-[[7-(2-amino-7-fluoro-1,3-benzothiazol-4-yl)-6-chloro-8-fluoro-2-[[(2S)-1-methylpyrrolidin-2-yl]methoxy]quinazolin-4-yl]amino]azetidin-1-yl]but-2-yn-1-one] was tested, and the pIC50 [1] was less than 6.00.

In the case of `C=CC(=O)N1CC(Nc2nc(OC[C@@H]3CCCN3C)nc3c(F)c(-c4ccc(F)c5sc(N)nc45)c(-c4ccoc4)cc23)C1` [Compound 93], the pIC50 [1] was less than 6.00.

Work on `CC#CC(=O)N1CC[C@@H]2[C@H]1CN2c1nc(OCC23CCCN2CCC3)nc2c(F)c(-c3ccc(F)c4sc(N)nc34)c(Cl)cc12` [Compound 118] yielded a pIC50 [1] of less than 6.00.

Molecule `C=CC(=O)N1CCN(c2nc(OCC34CCCN3CCC4)nc3c(F)c(-c4ccc(F)c5sc(N)nc45)c(-c4ccoc4)cc23)CC1` [Compound 119] has a pIC50 [1] of less than 6.00.

`CC#CC(=O)N1CC[C@@H]2[C@H]1CN2c1nc(OCC23CCCN2CCC3)nc2c(F)c(-c3ccc(F)c4sc(N)nc34)c(-c3ccoc3)cc12` [Compound 120] gave a pIC50 [1] of less than 6.00.

`C=CC(=O)N1CC[C@@H]2[C@H]1CN2c1nc(OCC23CCCN2CCC3)nc2c(F)c(-c3ccc(F)c4sc(N)nc34)c(-c3ccoc3)cc12` [Compound 121] was tested, and the pIC50 [1] was less than 6.00.

Molecule `C=CC(=O)N1CCN(c2ncnc3c(F)c(-c4ccc(F)c5sc(N)nc45)c(C4CCC4)cc23)CC1` [Compound 122] has a pIC50 [1] of less than 6.00.

For `CC#CC(=O)N1CC(N(C)c2nc(OC[C@@H]3CCCN3C)nc3c(F)c(-c4ccc(F)c5sc(N)nc45)c(C(F)(F)F)cc23)C1` [Compound 129], the pIC50 [1] was 6.00 to 7.00.

For `C=CC(=O)N1CCN(c2nc(OC[C@@H]3CC(F)(F)CN3C)nc3c(F)c(-c4ccc(F)c5sc(N)nc45)c(C(F)(F)F)cc23)CC1` [Compound 131], the pIC50 [1] was greater than 7.00.

Molecule `CC#CC(=O)N1CCN(c2nc(OC[C@@H]3CC(F)(F)CN3C)nc3c(F)c(-c4ccc(F)c5sc(N)nc45)c(C(F)(F)F)cc23)CC1` [Compound 132] has a pIC50 [1] of less than 6.00.

`CC#CC(=O)N1CCN(c2nc(OCC34CCCN3CCC4)nc3c(F)c(-c4ccc(F)c5sc(N)nc45)c(Cl)cc23)CC1` [Compound 133] gave a pIC50 [1] of less than 6.00.

Work on `CC#CC(=O)N1CCN(c2nc(OCC34CCCN3CCC4)nc3c(F)c(-c4ccc(F)c5sc(N)nc45)c(C(F)(F)F)cc23)CC1` [Compound 134] yielded a pIC50 [1] of 6.00 to 7.00.

With `C=CC(=O)N1CC[C@@H]2[C@H]1CN2c1nc(OC[C@@H]2C[C@@H](F)CN2C)nc2c(F)c(-c3ccc(F)c4sc(N)nc34)c(C(F)(F)F)cc12` [Compound 138] the pIC50 [1] was greater than 7.00.
